# Results from US20240016784A1, “Y BOX BINDING PROTEIN 1 INHIBITORS” (Oregon Health & Science University, priority 2020, published 2024).
# Tests used:
# [1] = system: YB-1, TMSB10, SUMO2 and PMSB2 proteins; assay: Western blot of CETSA targets in OVCAR8 cells; assay type: cell-based, human; conditions: 1, 2.5 and 5 μM for 12 h
# Experimental: Out of six targets identified, we selected proteins whose thermal shift is above 5° in the presence of SU056 for further study of protein expression after treatment. […] To study the in vivo effects of SU056 treatment, we analyzed ID8 tumor xenograft samples via immunohistochemistry (IHC). […] To identify the broader effects of SU056 on YB-1 and its downstream protein/activity in different ovarian cancer cell lines, we selected six different cell lines and treated them with SU056 (2.5 μM) for 12 h. Cells were analyzed for YB-1 and CD44 expression and Multidrug resistance 1 (MDR1, ABC pump mediated efflux). […] OVCAR4, OVCAR8, and SKOV3 cells were treated with SU056 (1, 2.5, and 5 μM) for 3, 6, 12, and 24 h and YB-1 expression was measured using YB-1 ELISA. […]
# Immunoblotting: Once 70% confluency of OC cells plated in 100 mm cell culture was obtained, dishes were treated with a respective concentration of SU056 for a respective time. […] Proteins were detected using Immobilon® Crescendo Western HRP Substrate (Millipore, Germany) and visualized on an IVIS Lumina Imaging System (Perkin Elmer, Waltham, MA).
# FIGS. 4A-4E: SU056 inhibits YB-1. […] FIG. 4C) Respective OC cells were treated with 2.5 μM SU056 for 12 h and YB-1 & CD44 expression and multidrug resistance activity was measured as described in the ‘method’ section. […]
# [2] = system: OVCAR8 and SKOV-3 OC cell lines; assay: MTT combination study of SU056 and paclitaxel; assay type: cell-based, human; conditions: paclitaxel at 0.1, 0.5, and 1 nM doses
# Experimental: Cell viability assay: Cell viability was assessed using the standard MTT assay protocol. In brief, 5,000 cells were plated in each well of 96 well plates (Corning-Costar, #3598) and allowed to attach for 24 h. Cells were treated with a respective concentration of compounds for respective time points. A stock solution of each compound was prepared in DMSO. DMSO concentration was kept constant and maintained below 0.1%. After each incubation, 50 μL of 0.5 mg/ml MTT solution prepared in 1×PBS was added to each well followed by 1 h incubation at 37° C. and 5% CO2. MTT solution and media were then removed, and MTT formazan crystals were dissolved in 100 μL of DMSO per well. Absorbance at 570 nm for each well was recorded using a multimode plate reader to quantitate MTT crystallization. Each absorbance value was normalized to controls and converted into percent cell viability.
# Combination index calculation: The combination index (CI) for paclitaxel and SU093 or SU056 was calculated using the Chou-Talalay Method (Chou, 2010). CI values were computed via CampuSyn software. CI<1, CI=1, and CI>1 indicate the synergistic, additive and antagonistic effect of the combination.
# Combination index values for paclitaxel and SU056. […] Scale bar, 250 μm FIG. 7E) Spheroid formation was quantified after 7 days of incubation. […] Tumor sections were stained with Ki67, and slides were scored for K167 staining. […]
# 4T1 tumor xenograft = assay: 4T1 tumor xenograft; assay type: in vivo, BALB/c mice; conditions: SU056 50 mg/kg, oral gavage
# Experimental: Mice were subcutaneously injected with 4T1 cells and drug treatment started after three day of implantation. Mice were given either vehicle (40% PEG in saline) or SU056 (50 mg/kg) through oral route using oral gavage. FIG. 14A) Tumor volume (4T1) as a function of time. FIG. 14B) Tumor weight (4T1) at the end of the study. FIG. 14C) Body weight (4T1) as a function of time. FIG. 14D) Representative images of tumor (4T1) at the end of study. Combination of Paclitaxel and SU056 in 4T1 xenograft model. FIG. 14E) Tumor volume (4T1) as a function of time. FIG. 14F) Tumor weight (4T1) at the end of the study. FIG. 14G) Body weight (4T1) as a function of time.
compound,measurement,setting,value
"O=C1OCC2=C1C(c1cccc(F)c1)c1cc3c(cc1N2CCO)OCO3 (stereo not drawn) [SU056, 9-(3-fluorophenyl)-5-(2-hydroxyethyl)-6,9-dihydro-[1,3]dioxolo[4,5-g]furo[3,4-b]quinolin-8(5H)-one]",protein expression by Western blot,[1],"inhibits the YB-1, TMSB10, SUMO2 and PMSB2 proteins in a dose-dependent manner"
same,effect on cytotoxic effects of paclitaxel (MTT),[2],significantly potentiates the cytotoxic effects of paclitaxel
same,4T1 tumor xenograft growth,4T1 tumor xenograft,inhibit 4T1 tumor xenograft
